The record followed here is publication PMC6934184, “Selective DNA-PKcs inhibition extends the therapeutic index of localized radiotherapy and chemotherapy” (The Journal of Clinical Investigation, 2019).

Molecules are shown by their SMILES.

The test has as its target T1, PI4KB (PI4K beta) (Homo sapiens, UniProt Q9UBF8).
T1 construct: purchased Thermo Fisher Scientific (Life Technologies) SelectScreen
As to the kind of experiment: SelectScreen Adapta. The class given is biochemical. The procedure, abridged:
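Percent values come from Thermo SelectScreen profiling of NU5455, combining activity and binding assays. CSF1R was run in Z'LYTE format at Km app ATP, and CAMK1 in Adapta format with ATP listed at 10.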

T1 sequence (Q9UBF8 whole entry): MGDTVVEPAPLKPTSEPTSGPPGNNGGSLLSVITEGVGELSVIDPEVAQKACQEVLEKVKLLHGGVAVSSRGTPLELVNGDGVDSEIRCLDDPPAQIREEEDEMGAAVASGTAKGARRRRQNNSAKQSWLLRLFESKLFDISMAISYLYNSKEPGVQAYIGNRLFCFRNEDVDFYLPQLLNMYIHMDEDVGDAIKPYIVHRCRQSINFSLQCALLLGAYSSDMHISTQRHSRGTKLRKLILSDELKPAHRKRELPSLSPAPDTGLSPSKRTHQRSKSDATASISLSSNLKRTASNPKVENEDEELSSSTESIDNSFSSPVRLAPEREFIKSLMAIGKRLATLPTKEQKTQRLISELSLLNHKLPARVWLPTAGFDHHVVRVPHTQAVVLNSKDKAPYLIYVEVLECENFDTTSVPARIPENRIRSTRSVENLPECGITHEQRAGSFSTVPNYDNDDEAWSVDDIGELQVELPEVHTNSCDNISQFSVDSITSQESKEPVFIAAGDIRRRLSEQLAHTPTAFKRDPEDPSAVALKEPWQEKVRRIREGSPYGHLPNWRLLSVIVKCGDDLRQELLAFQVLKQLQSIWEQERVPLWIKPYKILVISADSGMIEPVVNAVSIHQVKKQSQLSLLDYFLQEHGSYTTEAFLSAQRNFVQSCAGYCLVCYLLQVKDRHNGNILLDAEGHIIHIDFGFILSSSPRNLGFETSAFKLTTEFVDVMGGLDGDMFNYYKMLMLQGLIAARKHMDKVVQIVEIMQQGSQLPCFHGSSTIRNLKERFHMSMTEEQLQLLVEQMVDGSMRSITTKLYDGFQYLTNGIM

Consider `CN(C(=O)CN1CCOCC1)c1ccc2sc3c(-c4cccc5c(=O)cc(N6CC7CCC(C6)O7)oc45)cccc3c2c1` [NU5455], for which the inhibition at 1 µM is -4.7%.

Usually inhibition stands for the relative decrease from the control value, in per cent.
